Experimental data as given in ChEMBL document CHEMBL2429824, “Computer-assisted design of dual-target anti-HIV-1 compounds” (Med Chem Res, 2013).

Test system: Human immunodeficiency virus 1
Assay: Antiviral activity against HIV-1 infected in human MT-4 cells
Type: functional, organism-based
Details: Human immunodeficiency virus 1, MT4

Structure (SMILES)	IC50 [µM]
CCCCNc1nc(N)nc2ncn([C@H]3C[C@H](N=[N+]=[N-])[C@@H](CO)O3)c12	28.8
COc1cccc(S(=O)(=O)c2cccc(N)c2C#N)c1	0.912
N#Cc1c(N)cccc1S(=O)(=O)c1cccc(C(F)(F)F)c1	34.7
[N-]=[N+]=N[C@H]1C[C@H](n2cnc3nc(N)nc(NC4CC4)c32)O[C@@H]1CO	18.2
CCCCOc1nc(N)nc2ncn([C@H]3C[C@H](N=[N+]=[N-])[C@@H](CO)O3)c12	19.1
CCOc1nc(N)nc2ncn([C@H]3C[C@H](N=[N+]=[N-])[C@@H](CO)O3)c12	22.9
CCCNc1nc(N)nc2ncn([C@H]3C[C@H](N=[N+]=[N-])[C@@H](CO)O3)c12	12
[N-]=[N+]=N[C@H]1C[C@H](n2cnc3nc(N)nc(OC4CCC4)c32)O[C@@H]1CO	5.01
CCN(C)c1nc(N)nc2ncn([C@H]3C[C@H](N=[N+]=[N-])[C@@H](CO)O3)c12	12
[N-]=[N+]=N[C@H]1C[C@H](n2cnc3nc(N)nc(N4CCCC4)c32)O[C@@H]1CO	7.94
CNc1nc(N)nc2ncn([C@H]3C[C@H](N=[N+]=[N-])[C@@H](CO)O3)c12	52.5
COc1nc(N)nc2ncn([C@H]3C[C@H](N=[N+]=[N-])[C@@H](CO)O3)c12	8.91
CCCOc1nc(N)nc2ncn([C@H]3C[C@H](N=[N+]=[N-])[C@@H](CO)O3)c12	8.91
CC(C)Oc1nc(N)nc2ncn([C@H]3C[C@H](N=[N+]=[N-])[C@@H](CO)O3)c12	21.9
[N-]=[N+]=N[C@H]1C[C@H](n2cnc3nc(N)nc(NC4CCC4)c32)O[C@@H]1CO	14.1
[N-]=[N+]=N[C@H]1C[C@H](n2cnc3nc(N)nc(Cl)c32)O[C@@H]1CO	6.03
[N-]=[N+]=N[C@H]1C[C@H](n2cnc3nc(N)nc(Oc4ccccc4)c32)O[C@@H]1CO	28.2
[N-]=[N+]=N[C@H]1C[C@H](n2cnc3nc(N)nc(OCc4ccccc4)c32)O[C@@H]1CO	7.94
[N-]=[N+]=N[C@H]1C[C@H](n2cnc3nc(N)nc(N4CCC4)c32)O[C@@H]1CO	8.91
[N-]=[N+]=N[C@H]1C[C@H](n2cnc3nc(N)nc(O)c32)O[C@@H]1CO	5.01
CN(c1nc(N)nc2ncn([C@H]3C[C@H](N=[N+]=[N-])[C@@H](CO)O3)c12)C1CC1	3.98
CCNc1nc(N)nc2ncn([C@H]3C[C@H](N=[N+]=[N-])[C@@H](CO)O3)c12	17
[N-]=[N+]=N[C@H]1C[C@H](n2cnc3nc(N)nc(NCCc4ccccc4)c32)O[C@@H]1CO	112
CN(C)c1nc(N)nc2ncn([C@H]3C[C@H](N=[N+]=[N-])[C@@H](CO)O3)c12	20.9
[N-]=[N+]=N[C@H]1C[C@H](n2cnc3nc(N)nc(N)c32)O[C@@H]1CO	2
CCCN(C)c1nc(N)nc2ncn([C@H]3C[C@H](N=[N+]=[N-])[C@@H](CO)O3)c12	11

Target: Human immunodeficiency virus type 1 reverse transcriptase (Human immunodeficiency virus 1, UniProt Q72547)
Assay: Inhibition of HIV-1 reverse transcriptase
Details: not given

Structure (SMILES)	IC50 [µM]
N#Cc1c(N)cccc1[S+]([O-])c1cc(Cl)ccc1Cl (centres undefined)	6.31
COc1ccc(S(=O)(=O)c2cccc(N)c2C#N)cc1	13.2
COc1cc([S+]([O-])c2cccc(N)c2C#N)cc(C(F)(F)F)c1 (centres undefined)	0.912
